Source: patent US9901592B2 (priority 2008, dated 2018)
Values after ≈ are worked out from the molar mass of the structure shown. Where two headings read alike, the source gives them in different places.

Key:
M. genitalium = format: cell-based; details: M. genitalium (5 isolates)
M. fermentans = format: cell-based; details: M. fermentans (15 isolates)
M. hominis = format: cell-based; details: M. hominis (13 isolates)
U. urealyticum = assay: MIC testing in 10B broth (colour change); format: cell-based; details: U. urealyticum (10 isolates)
S. pyogenes [1] = format: cell-based
S. pneumoniae [2] = assay: mouse systemic infection model (PD50); format: in vivo
S. pyogenes [3] = assay: mouse systemic infection model (PD50); format: in vivo
S. pneumoniae [4] = assay: MIC of the strains of the mouse systemic infection model; format: cell-based; details: Streptococcus pneumoniae
S. pyogenes ATCC 8668 = assay: mouse subcutaneous abscess model; format: in vivo; details: 48 hr. post infection
Experimental: Example. Mouse Subcutaneous Abscess. Bacteria were prepared from an overnight plate culture by re-suspending in saline and adjusting the suspension to a 0.1 OD at 625 nm of a 1:10 dilution. The adjusted bacterial suspension was mixed 1:2 with cyclodextran beads prepared as per package instructions. The right flanks of the mice were shaven and injected subcutaneously with 0.2 ml of the bacterial inoculum. Two hours post infection mice were treated via oral gavage with either test article or control drug. 48 hours post infection, mice were euthanized, abscesses aseptically removed, homogenized, serially diluted and plated on bacterial growth agar. After overnight incubation, colonies were counted and CFUs/gram of abscess were determined.
Example. Mouse Subcutaneous Abscess˜S. pyogenes ATCC 8668 (Average Log10 CFU/gram of Abscess). Abscess processing 48 hours post infection.

S. pneumoniae [5] = assay: neutropenic mouse thigh infection; format: in vivo; details: PO
Experimental: Example. Neutropenic Mouse Thigh Infection. Mice were rendered neutropenic with IP injections of cyclophosamide at day −4 and day −1 of 150 mg/Kg and 100 mg/Kg, respectively. On day 0 mice were infected with approximately 5×10^5 CFU/ml of bacteria in a 0.1 ml volume into the right thigh. At 1.5 hours post infection mice received treatment via oral gavage. One group of infected mice were euthanized and thigh processed for bacterial titers to serve as T=0 controls. Twenty-four hours post treatment, the remaining mice were euthanized, thighs aseptically removed, weighed, homogenized, serially diluted and plated on bacterial growth media. CFUs per gram of thigh were calculated after overnight incubation of bacterial plates. The amount of test article required to achieve 1, 2, and 3 loge reductions from 24 hour control thighs were calculated. Additional studies were performed that fractionated the single treatment dose (Q24) into two (Q12), three (Q8) and four (Q6) equivalent doses to determine the pharmacodynamic nature of this compound. Further analysis includes static dose, EC50, 1 log kill and maximal effect (Emax).

streptococci = assay: organism not typed; format: cell-based
S. pneumoniae [6] = assay: neutropenic mouse thigh infection; format: in vivo; details: PO; remark: listed apart in the source
[7] = S. pneumoniae (macrolide susceptible)

**Q.** How did the “MIC Range” value (M. genitalium) turn out when `CC[C@H]1OC(=O)[C@@](C)(F)C(=O)[C@H](C)[C@@H](OC2OC(C)CC(N(C)C)C2O)[C@@](C)(OC)C[C@@H](C)C(=O)[C@H](C)[C@H]2N(CCCCn3cc(-c4cccc(N)c4)nn3)C(=O)O[C@]12C` (some centres unmarked) [CEM-101, 11-N-4-(3-aminophenyl)-[1,2,3]triazol-1-yl]-butyl}-5-desosaminyl-3-oxo-2-fluoro-erythronolide A,-11,12-cyclic carbamate] was run?
**A.** ≦0.000032 μg/mL

**Q.** What about the “MIC Range” value (M. fermentans) of the same compound?
**A.** ≦0.008 μg/mL

**Q.** What about the MIC50 (M. fermentans; Mycoplasmopsis fermentans) of the same compound?
**A.** ≤ 8 ng/mL

**Q.** What about the MIC90 (M. fermentans; Mycoplasmopsis fermentans) of the same compound?
**A.** ≤ 8 ng/mL

**Q.** What about the “MIC Range” value (M. hominis) of the same compound?
**A.** 2 to 8 ng/mL

**Q.** And the MIC50 (M. hominis; Metamycoplasma hominis, read-out: MIC50)?
**A.** 4 ng/mL (≈ 4.73 nM)

**Q.** And the MIC90 (M. hominis; Metamycoplasma hominis, read-out: MIC90)?
**A.** 8 ng/mL (≈ 9.47 nM)

**Q.** And the “MIC Range” value (U. urealyticum)?
**A.** 4 to 63 ng/mL

**Q.** And the MIC50 (U. urealyticum; Ureaplasma urealyticum)?
**A.** 8 ng/mL (≈ 9.47 nM)

**Q.** What about the MIC90 (U. urealyticum; Ureaplasma urealyticum) of the same compound?
**A.** 31 ng/mL (≈ 36.7 nM)

**Q.** What about the “single step mutation frequency” value (S. pyogenes [1]; strain 237 Macrolide-R [L4 mutation], 2 × MIC) of the same compound?
**A.** <1.3 × 10^−10

**Q.** And the “single step mutation frequency” value (S. pyogenes [1]; strain 237 Macrolide-R [L4 mutation], 4 × MIC)?
**A.** <1.3 × 10^−10

**Q.** And the “single step mutation frequency” value (S. pyogenes [1]; strain 237 Macrolide-R [L4 mutation], 8 × MIC)?
**A.** <1.3 × 10^−10

**Q.** And the “single step mutation frequency” value (S. pyogenes [1]; strain 2011 Macrolide-R [mef(A)], 2 × MIC)?
**A.** 3.9 × 10^−8

**Q.** And the “single step mutation frequency” value (S. pyogenes [1]; strain 2011 Macrolide-R [mef(A)], 4 × MIC)?
**A.** <1.1 × 10^−10

**Q.** What about the “single step mutation frequency” value (S. pyogenes [1]; strain 2011 Macrolide-R [mef(A)], 8 × MIC) of the same compound?
**A.** <1.1 × 10^−10

**Q.** And the “single step mutation frequency” value (S. pyogenes [1]; strain 2094 Macrolide-R [erm(A)], 2 × MIC)?
**A.** 5.3 × 10^−8

**Q.** And the “single step mutation frequency” value (S. pyogenes [1]; strain 2094 Macrolide-R [erm(A)], 4 × MIC)?
**A.** 2.1 × 10^−9

**Q.** What about the “single step mutation frequency” value (S. pyogenes [1]; strain 2094 Macrolide-R [erm(A)], 8 × MIC) of the same compound?
**A.** <5.3 × 10^−10

**Q.** And the “single step mutation frequency” value (S. pyogenes [1]; strain 2132 Macrolide-S, 2 × MIC)?
**A.** <1.0 × 10^−10

**Q.** And the “single step mutation frequency” value (S. pyogenes [1]; strain 2132 Macrolide-S, 4 × MIC)?
**A.** <1.0 × 10^−10

**Q.** And the “single step mutation frequency” value (S. pyogenes [1]; strain 2132 Macrolide-S, 8 × MIC)?
**A.** <1.0 × 10^−10

**Q.** What about the “single step mutation frequency” value (S. pyogenes [1]; strain 2368 Macrolide-R [erm(B)], 2 × MIC) of the same compound?
**A.** <5.9 × 10^−11

**Q.** What about the “single step mutation frequency” value (S. pyogenes [1]; strain 2368 Macrolide-R [erm(B)], 4 × MIC) of the same compound?
**A.** <5.9 × 10^−11

**Q.** And the “single step mutation frequency” value (S. pyogenes [1]; strain 2368 Macrolide-R [erm(B)], 8 × MIC)?
**A.** <5.9 × 10^−11

**Q.** And the PD50 (S. pneumoniae [2]; [7])?
**A.** 6.0 mg/kg

**Q.** What about the PD50 (S. pneumoniae [2]; S. pneumoniae (mefR)) of the same compound?
**A.** 23.2 mg/kg

**Q.** And the PD50 (S. pneumoniae [2]; S. pneumoniae serotype 19A)?
**A.** 6.6 mg/kg

**Q.** What about the PD50 (S. pyogenes [3]; S. pyogenes (erythromycin R)) of the same compound?
**A.** 5.1 mg/kg

**Q.** What about the PD50 (S. pyogenes [3]; S. pyogenes (macrolide susceptible)) of the same compound?
**A.** 9.4 mg/kg

**Q.** What about the MIC (S. pneumoniae [4]; [7]) of the same compound?
**A.** < 30 ng/mL

**Q.** What about the MIC (S. pneumoniae [4]; S. pneumoniae (mefR), read-out: MIC) of the same compound?
**A.** < 30 ng/mL

**Q.** What about the “Average Log10 CFU/gram of Abscess” value (S. pyogenes ATCC 8668; 10 mg/Kg) of the same compound?
**A.** 5.35 Log10 CFU/gram

**Q.** What about the “Average Log10 CFU/gram of Abscess” value (S. pyogenes ATCC 8668; 20 mg/Kg) of the same compound?
**A.** 2.53 Log10 CFU/gram

**Q.** And the “Max. change in log10CFUs from 24 hr. controls” value (S. pneumoniae [5]; S. pneumoniae 1629)?
**A.** −5.81 log10CFUs

**Q.** What about the “Dose for 2 log10 Reduction from 24 hour controls” value (S. pneumoniae [5]; S. pneumoniae 1629, QD) of the same compound?
**A.** 7.0 mg/Kg

**Q.** And the “Max. change in log10CFUs from 24 hr. controls” value (S. pneumoniae [5]; S. pneumoniae 6303)?
**A.** −6.17 log10CFUs

**Q.** And the Emax (S. pneumoniae [5]; S. pneumoniae 6303, Q6)?
**A.** 5.83 log10CFU/thigh

**Q.** What about the EC50 (S. pneumoniae [5]; S. pneumoniae 6303, Q8) of the same compound?
**A.** 9.0 mg/kg

**Q.** And the EC50 (S. pneumoniae [5]; S. pneumoniae 6303, Q12)?
**A.** 14.5 mg/kg

**Q.** And the Emax (S. pneumoniae [5]; S. pneumoniae 6303, Q12)?
**A.** 4.95 log10CFU/thigh

**Q.** What about the 1 log kill (S. pneumoniae [5]; S. pneumoniae 6303, Q24) of the same compound?
**A.** 10.8 mg/Kg

**Q.** What about the EC50 (S. pneumoniae [5]; S. pneumoniae 6303, Q24) of the same compound?
**A.** 5.7 mg/kg

**Q.** What about the MIC (streptococci) of the same compound?
**A.** 60 ng/mL (≈ 71 nM)

**Q.** What about the “Dose for 1 log10 Reduction from 24 hour controls” value (S. pneumoniae [6]; S. pneumoniae 1629, QD) of the same compound?
**A.** 6.0 mg/Kg

**Q.** What about the “Dose for 3 log10 Reduction from 24 hour controls” value (S. pneumoniae [6]; S. pneumoniae 1629, QD) of the same compound?
**A.** 8.0 mg/Kg

**Q.** And the 1 log kill (S. pneumoniae [6]; S. pneumoniae 6303, Q6)?
**A.** 23.0 mg/Kg

**Q.** What about the EC50 (S. pneumoniae [6]; S. pneumoniae 6303, Q6) of the same compound?
**A.** 16.7 mg/kg

**Q.** And the Static dose (S. pneumoniae [6]; S. pneumoniae 6303, Q6)?
**A.** 20.5 mg/kg

**Q.** And the 1 log kill (S. pneumoniae [6]; S. pneumoniae 6303, Q8)?
**A.** 23.0 mg/Kg

**Q.** What about the Emax (S. pneumoniae [6]; S. pneumoniae 6303, Q8) of the same compound?
**A.** 5.01 log10CFU/thigh

**Q.** What about the Static dose (S. pneumoniae [6]; S. pneumoniae 6303, Q8) of the same compound?
**A.** 12.1 mg/kg

**Q.** What about the 1 log kill (S. pneumoniae [6]; S. pneumoniae 6303, Q12) of the same compound?
**A.** 24.0 mg/Kg

**Q.** And the Static dose (S. pneumoniae [6]; S. pneumoniae 6303, Q12)?
**A.** 19.2 mg/kg

**Q.** What about the Emax (S. pneumoniae [6]; S. pneumoniae 6303, Q24) of the same compound?
**A.** 6.38 log10CFU/thigh

**Q.** What about the Static dose (S. pneumoniae [6]; S. pneumoniae 6303, Q24) of the same compound?
**A.** 8.2 mg/kg

**Q.** What about the “Dose for 1 log10 Reduction from 24 hour controls” value (S. pneumoniae [6]; S. pneumoniae 6303, QD) of the same compound?
**A.** 1.2 mg/Kg

**Q.** What about the “Dose for 2 log10 Reduction from 24 hour controls” value (S. pneumoniae [6]; S. pneumoniae 6303, QD) of the same compound?
**A.** 3.0 mg/Kg

**Q.** And the “Dose for 3 log10 Reduction from 24 hour controls” value (S. pneumoniae [6]; S. pneumoniae 6303, QD)?
**A.** 5.0 mg/Kg
